Test [1] deals with T1, BTK enzyme (recombinant full-length BTK, hBTK) (Homo sapiens, UniProt Q06187).
T1 construct: recombinant protein from baculovirus-transfected S 19 cells: full-length BTK, 6 HIS-tag cleaved; 6 HIS-tag (cleaved yes); made in house
The experiment in a line: Btk enzyme activity assay (LANCE TR-FRET). To be noted: 50 pM hBTK, 25 μM ATP, 60 minute compound and enzyme incubation, concentration range 1 μM to 0.017 nM, read-out: BTK binding IC50. The format is biochemical.

For test [2], the system named is adenosine uptake into HeLa cells. The experiment in a line: [3H]Adenosine uptake assay. The format is cell-based. To be noted: Homo sapiens; accumulation of [3H]adenosine into HeLa cells; concentration range 10 μM to 0.032 nM; read-out: ADU inhibition IC50. The procedure:
Compounds are also screened in an adenosine uptake functional cellular assay using the protocol described below:
Adenosine uptake activity was determined by monitoring the accumulation of tritiated adenosine into HeLa cells (ATCC catalog #CCL-2) using a PMT-based radiometric detection instrument. In this assay, the potency (IC50) of each compound was determined from a ten point (1:3 serial dilution; final compound concentration range in assay from 10 μM to 0.032 nM) titration curve using the following outlined procedure. To each well of a 96-well CytoStar-T scintillating microplate (Perkin Elmer Catalog #RPNQ0163), 25 000 HeLa cells in 100 μL of growth medium comprising: Minimum Essential Media (Life Technologies Catalog #11095-080)+10% (v/v) foetal bovine serum (FBS; Sigma Aldrich Catalog #F2442) was added. These cells were incubated overnight at 37° C. in a humidified atmosphere with 5% (v/v) CO2. After this time the growth medium was removed and replaced with 40 μL assay medium comprising: Hanks balanced salts solution (HBSS; Thermo Fisher Catalog # SH30268.01)+5% (v/v) FBS. Compound stock solutions in DMSO were diluted in assay medium to 2.5× final compound concentration maintaining a constant DMSO concentration of 0.25% (v/v). 40 μL of compound in assay medium was dispensed into individual wells of the Cytostar-T plates and the plates were incubated for 30 minutes under ambient laboratory conditions. Following this incubation, 20 μL of 500 nM [^3H] adenosine (American Radiolabeled Chemicals Inc. Catalog #ART0287) in assay medium was added and incubated for a further 60 minutes under ambient laboratory conditions. The amount of radiolabel accumulation was then determined using a Perkin Elmer Topcount NXT microplate reader. In brief, HeLa cells adhere to the bottom of the Cytostar-T plate, uptake of [^3H]adenosine into these cells brings the radiolabel into sufficient proximity to excite the scintillant in the base of the plates. These events are captured by single PMT, time-resolved coincidence counting. IC50 values were determined by 4 parameter robust fit of counts per second values vs. (Log10)) compound concentrations.

T1 sequence (Q06187 whole entry): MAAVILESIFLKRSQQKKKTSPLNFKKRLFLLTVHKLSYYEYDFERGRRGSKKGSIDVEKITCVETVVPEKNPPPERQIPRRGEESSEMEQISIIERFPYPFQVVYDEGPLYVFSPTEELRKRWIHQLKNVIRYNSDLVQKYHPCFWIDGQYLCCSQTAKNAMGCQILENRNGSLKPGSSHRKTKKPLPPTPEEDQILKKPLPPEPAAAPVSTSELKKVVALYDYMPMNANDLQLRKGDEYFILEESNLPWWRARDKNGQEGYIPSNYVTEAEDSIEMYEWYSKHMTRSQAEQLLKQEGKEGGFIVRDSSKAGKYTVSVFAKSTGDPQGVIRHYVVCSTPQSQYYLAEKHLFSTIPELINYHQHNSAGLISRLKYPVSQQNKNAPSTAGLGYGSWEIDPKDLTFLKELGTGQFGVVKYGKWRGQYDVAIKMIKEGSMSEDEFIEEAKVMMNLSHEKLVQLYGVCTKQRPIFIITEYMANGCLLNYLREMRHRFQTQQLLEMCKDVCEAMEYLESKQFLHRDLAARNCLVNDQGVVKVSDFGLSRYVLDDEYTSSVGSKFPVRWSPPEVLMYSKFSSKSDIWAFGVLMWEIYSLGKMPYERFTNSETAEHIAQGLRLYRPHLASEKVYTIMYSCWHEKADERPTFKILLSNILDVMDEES

With `CCOc1cc(C(=O)Nc2cc(C(F)(F)F)ccn2)ccc1-c1nc([C@@H]2CC[C@H](C(F)(F)F)N(C(=O)C3CC3)C2)n2ccnc(N)c12` [Example 1, 4-{8-amino-3-[(3R,6R)-1-(cyclopropylcarbonyl)-6-(trifluoromethyl)piperidin-3-yl]imidazo[1,5-a]pyrazin-1-yl}-3-ethoxy-N-[4-(trifluoromethyl)pyridin-2-yl]benzamide], the IC50 turned out to be 0.347 µM in test [1] and 0.918 µM in test [2]. For `CCOc1cc(C(=O)Nc2cc(C(F)(F)F)ccn2)ccc1-c1nc([C@H]2CC[C@H](C(F)(F)F)N(C(=O)C3CC3)C2)n2ccnc(N)c12` [Example 2, 4-{8-amino-3-[(3S,6R)-1-(cyclopropylcarbonyl)-6-(trifluoromethyl)piperidin-3-yl]imidazo[1,5-a]pyrazin-1-yl}-3-ethoxy-N-[4-(trifluoromethyl)pyridin-2-yl]benzamide], the results for the IC50 in test [1] and in test [2] were 0.00138 µM and 0.918 µM, respectively.

Regarding `CCOc1cc(C(=O)Nc2cc(C(F)(F)F)ccn2)ccc1-c1nc([C@H]2CC[C@@H](C(F)(F)F)N(C(=O)C3CC3)C2)n2ccnc(N)c12` [Example 3, 4-{8-amino-3-[(3S,6S)-1-(cyclopropylcarbonyl)-6-(trifluoromethyl)piperidin-3-yl]imidazo[1,5-a]pyrazin-1-yl}-3-ethoxy-N-[4-(trifluoromethyl)pyridin-2-yl]benzamide], the IC50 is 1 µM in test [1] and 0.859 µM in test [2].

Regarding `CCOc1cc(C(=O)Nc2cc(C(F)(F)F)ccn2)ccc1-c1nc([C@@H]2CC[C@@H](C(F)(F)F)N(C(=O)C3CC3)C2)n2ccnc(N)c12` [Example 4, 4-{8-amino-3-[(3R,6S)-1-(cyclopropylcarbonyl)-6-(trifluoromethyl)piperidin-3-yl]imidazo[1,5-a]pyrazin-1-yl}-3-ethoxy-N-[4-(trifluoromethyl)pyridin-2-yl]benzamide], the half-maximal inhibitory concentration (IC50) in test [1] came out at 0.0394 µM; in test [2], 1.06 µM. `CCOc1cc(C(=O)Nc2cc(C(F)(F)F)n(C)n2)ccc1-c1nc([C@H]2CN(C(=O)C3CC3)[C@@H](C)CO2)n2c(Cl)cnc(N)c12` [Example 5, 4-{8-amino-5-chloro-3-[(2R,5S)-4-(cyclopropylcarbonyl)-5-methylmorpholin-2-yl]imidazo[1,5-a]pyrazin-1-yl}-3-ethoxy-N-[1-methyl-5-(trifluoromethyl)-1H-pyrazol-3-yl]benzamide]: the figures for the 50% inhibitory concentration (IC50) in test [1] and in test [2] were 0.00714 µM and no less than 10 µM, respectively. `CCOc1cc(C(=O)Nc2cc(C(F)(F)F)n(C)n2)ccc1-c1nc([C@H]2CN(C(=O)[C@H](C)O)[C@@H](C)CO2)n2c(Cl)cnc(N)c12` [Example 6, 4-(8-amino-5-chloro-3-{(2R,5S)-4-[(2S)-2-hydroxypropanoyl]-5-methylmorpholin-2-yl}imidazo[1,5-a]pyrazin-1-yl)-3-ethoxy-N-[1-methyl-5-(trifluoromethyl)-1H-pyrazol-3-yl]benzamide]: the IC50 was 0.00573 µM in test [1] and no less than 10 µM in test [2]. For the compound `CCOc1cc(C(=O)Nc2cc(C(F)(F)F)ccn2)ccc1-c1nc([C@H]2CN(C(=O)C(C)C)[C@@H](C)CO2)n2c(Cl)cnc(N)c12` [Example 7, 4-{8-amino-5-chloro-3-[(2R,5S)-5-methyl-4-(2-methylpropanoyl)morpholin-2-yl]imidazo[1,5-a]pyrazin-1-yl}-3-ethoxy-N-[4-(trifluoromethyl)pyridin-2-yl]benzamide], the IC50 is 0.00167 µM in test [1] and no less than 10 µM in test [2].

On to `CCOc1cc(C(=O)Nc2cc(C(F)(F)F)ccn2)ccc1-c1nc([C@H]2CN(C(=O)C3CC3)[C@@H](C)CO2)n2c(Cl)cnc(N)c12` [Example 8, 4-{8-amino-5-chloro-3-[(2R,5S)-4-(cyclopropylcarbonyl)-5-methylmorpholin-2-yl]imidazo[1,5-a]pyrazin-1-yl}-3-ethoxy-N-[4-(trifluoromethyl)pyridin-2-yl]benzamide], for which the IC50 was 0.00119 µM in test [1] and no less than 10 µM in test [2].

On to `CCc1cnc(N)c2c(-c3ccc(C(=O)Nc4cc(C(F)(F)F)ccn4)cc3OC)nc([C@H]3CN(C(=O)C4CC4)[C@@H](C)CO3)n12` [Example 9, 4-{8-amino-3-[(2R,5S)-4-(cyclopropylcarbonyl)-5-methylmorpholin-2-yl]-5-ethylimidazo[1,5-a]pyrazin-1-yl}-3-methoxy-N-[4-(trifluoromethyl)pyridin-2-yl]benzamide], for which the values for the IC50 in test [1] and in test [2] were 0.00376 µM and 2.68 µM, respectively. Regarding `C=Cc1cnc(N)c2c(-c3ccc(C(=O)Nc4cc(C(F)(F)F)ccn4)cc3OC)nc([C@H]3CN(C(=O)C4CC4)[C@@H](C)CO3)n12` [Example 10, 4-{8-amino-3-[(2R,5S)-4-(cyclopropylcarbonyl)-5-methylmorpholin-2-yl]-5-ethenylimidazo[1,5-a]pyrazin-1-yl}-3-methoxy-N-[4-(trifluoromethyl)pyridin-2-yl]benzamide], the half-maximal inhibitory concentration (IC50) came to 0.000528 µM in test [1] and 1.2 µM in test [2]. The like results for `CCOc1cc(C(=O)Nc2cc(C(F)(F)F)ccn2)ccc1-c1nc([C@H]2CN(C(=O)[C@@H](C)O)[C@@H](C)CO2)n2c(Cl)cnc(N)c12` [Example 11, 4-(8-amino-5-chloro-3-{(2R,5S)-4-[(2R)-2-hydroxypropanoyl]-5-methylmorpholin-2-yl}imidazo[1,5-a]pyrazin-1-yl)-3-ethoxy-N-[4-(trifluoromethyl)pyridin-2-yl]benzamide] were, in that order, 0.00142 µM and 3.12 µM. `CCOc1cc(C(=O)Nc2cc(C(F)(F)F)ccn2)ccc1-c1nc([C@H]2CN(C(=O)C3(C)CC3)[C@@H](C)CO2)n2c(Cl)cnc(N)c12` [Example 12, 4-(8-amino-5-chloro-3-{(2R,5S)-5-methyl-4-[(1-methylcyclopropyl)carbonyl]morpholin-2-yl}imidazo[1,5-a]pyrazin-1-yl)-3-ethoxy-N-[4-(trifluoromethyl)pyridin-2-yl]benzamide]: the IC50 in test [1] was 0.0011 µM; in test [2], no less than 10 µM.

As to `COc1cc(C(=O)Nc2cc(C(F)(F)F)ccn2)ccc1-c1nc([C@H]2CN(C(=O)[C@H](C)OC)[C@@H](C)CO2)n2c(Cl)cnc(N)c12` [Example 13, 4-(8-amino-5-chloro-3-{(2R,5S)-4-[(2S)-2-methoxypropanoyl]-5-methylmorpholin-2-yl}imidazo[1,5-a]pyrazin-1-yl)-3-methoxy-N-[4-(trifluoromethyl)pyridin-2-yl]benzamide], the IC50 turned out to be 0.00389 µM in test [1] and 1.71 µM in test [2]. On to `COCC(=O)N1C[C@H](c2nc(-c3ccc(C(=O)Nc4cc(C(F)(F)F)ccn4)cc3F)c3c(N)nccn23)OC[C@H]1CO` [Example 56, 4-{8-amino-3-[(2R,5R)-5-(hydroxymethyl)-4-(methoxyacetyl)morpholin-2-yl]imidazo[1,5-a]pyrazin-1-yl}-3-fluoro-N-[4-(trifluoromethyl)pyridin-2-yl]benzamide], for which the IC50 in test [1] is 0.00881 µM. Still for that read-out and setting: then `CS(=O)(=O)CC(=O)N1C[C@H](c2nc(-c3ccc(C(=O)Nc4cc(C(F)(F)F)ccn4)cc3F)c3c(N)nccn23)OC[C@H]1CO` [Example 58, 4-(8-amino-3-{(2R,5R)-5-(hydroxymethyl)-4-[(methylsulfonyl)acetyl]morpholin-2-yl}imidazo[1,5-a]pyrazin-1-yl)-3-fluoro-N-[4-(trifluoromethyl)pyridin-2-yl]benzamide], with 0.00692 µM; and `C[C@H](O)C(=O)N1C[C@H](c2nc(-c3ccc(C(=O)Nc4cc(C(F)(F)F)ccn4)cc3F)c3c(N)nccn23)OC[C@H]1CO` [Example 59, 4-(8-amino-3-{(2R,5R)-5-(hydroxymethyl)-4-[(2S)-2-hydroxypropanoyl]morpholin-2-yl}imidazo[1,5-a]pyrazin-1-yl)-3-fluoro-N-[4-(trifluoromethyl)pyridin-2-yl]benzamide], with 0.0122 µM. As to `C[C@H]1CO[C@@H](c2nc(-c3ccc(C(=O)Nc4cc(C(F)(F)F)ccn4)cc3F)c3c(N)nccn23)CN1C(=O)C1CC1` [Example 86, 4-{8-amino-3-[(2R,5S)-4-(cyclopropylcarbonyl)-5-methylmorpholin-2-yl]imidazo[1,5-a]pyrazin-1-yl}-3-fluoro-N-[4-(trifluoromethyl)pyridin-2-yl]benzamide], the IC50 in test [2] is 0.246 µM. Consider `CNC(=O)N1C[C@H](c2nc(-c3ccc(C(=O)Nc4cc(C(F)(F)F)ccn4)c(F)c3)c3c(N)nccn23)CC[C@@H]1C` [Example 94, (2S,5R)-5-[8-amino-1-(3-fluoro-4-{[4-(trifluoromethyl)pyridin-2-yl]carbamoyl}phenyl)imidazo[1,5-a]pyrazin-3-yl]-N,2-dimethylpiperidine-1-carboxamide], for which, in test [1], the IC50 was determined as 0.000374 µM.
